Reference: patent publication US9301933B2, “Compositions and methods for treating presbyopia, mild hyperopia, and irregular astigmatism” (ALLERGAN, INC., priority 2011, dated 2016)
Values joined by “and” are separate entries in the source; they are usually repeats but may differ in a detail not shown here. Equal entries are not always repeated.

Key:
[1] = tested on: pupil of patients' eyes; assay: Pupillary diameter in medium lighting (mesopic) conditions, infrared camera device; format: in vivo, human; details: Example 3
Protocol: (§1) A group of 10 patients (20 eyes) considered emmetropes or slightly hyperopic (Spherical equivalent from +0.88 D to −0.13 D with less than 1.00 D of astigmatism) was treated with a composition of the invention.
(§2) One drop containing 1% pilocarpine and 0.025% oxymetazoline w/w dissolved in a solution of 0.5% sodium chloride, with carboxymethyl cellulose as a viscosant and benzalkonium chloride as preservative were instilled once into the right eye, and the same solution containing 1% pilocarpine without oxymetazoline was instilled once into the left eye and the same measurements were taken one hour, four hours and six hours later. (Each patient acted as its own control) (Table 2). […]

[2] = tested on: eyes of presbyopic (emmetropic or slightly hyperopic) patients; assay: Unaided near visual acuity (UNVA) at 40 centimeters, hand-held Rosembaum chart, Jaeger notation; format: in vivo, human; design: key to 1 h UNVA: J1+ is fine “normal” near vision (equivalent to 20/20 in Snellen terms); J1 is good near vision (equivalent to 20/25 in Snellen terms); J2 and J3 are fair and functional near vision, respectively (equivalent to 20/30 and 20/40, respectively, in Snellen terms); J2 and J3 are fair and functional near vision, respectively (equivalent to 20/30 and 20/40, respectively, in Snellen terms); details: Example 3
Protocol: Measurements on the Jaeger scale, a near vision scale, are used and described herein. […]
as §1, §2

[3] = tested on: eyes of presbyopic (emmetropic or slightly hyperopic) patients; assay: Unaided distance visual acuity (UDVA), Snellen chart; format: in vivo, human; details: Example 3
Protocol: as §1, §2

[4] = tested on: patients' eyes; details: cited from earlier work
[5] = tested on: eyes of presbyopic (emmetropic or slightly hyperopic) patients; assay: Refractive power of each eye (sphere, cylinder, spherical equivalent); format: in vivo, human; details: Example 3
Description: The following terms are ophthalmic terms commonly used by those of skill in the art. “OD” stands for oculus dexter and means right eye. “OS” stands for oculus sinister and means left eye. “UDVA” stands for unaided distance visual acuity. “UNVA” stands for unaided near visual acuity. “Sph” is the sphere, or the amount of magnification/demagnification that the eye needs to see properly. A negative sphere indicates myopia, and a positive sphere indicates hyperopia. “Cyl” is the cylinder, which is a measure of astigmatism. “Pre” indicates the condition of the eye prior to treatment, 1 h indicates the condition of the eye 1 hour after treatment, 4 h indicates the condition of the eye 4 hours after treatment, and 6 h indicates the condition of the eye 6 hours after treatment. “Sph Eq” is the spherical equivalent.
A group of 10 patients (20 eyes) considered emmetropes or slightly hyperopic (Spherical equivalent from +0.88 D to −0.50 D with less than 1.00 D of astigmatism) was treated with a composition of the invention.
Three drops containing 1% pilocarpine and 0.125% oxymetazoline w/w dissolved in a solution of 0.5% sodium chloride, with carboxymethyl cellulose as a viscosant and benzalkonium chloride as preservative were instilled into each eye three times separated 5 minutes each, and the same measurements were taken one hour, four hours and six hours later (Table 1). As shown in Table 1 and FIGS. 1-2, there was an average gain of 3.7 units of unaided near visual acuity while losing 0.7 lines of uncorrected distance visual acuity at one hour after instillation. […] The improvement in near vision was more pronounced in younger patients and the lack of detriment of the distance vision (FIG. 2) was more marked in hyperopic patients. […]
After a two-week washout period, five of the patients from example 1 were treated with a combination of 1% pilocarpine and 0.015% meloxicam dissolved in a solution of 0.5% sodium chloride in water plus carboxymethyl cellulose as viscosant and benzalkonium chloride as a preservative, and the same measurements in example 1 were taken at one hour, four hours, and eight hours later. […]

CC[C@@H]1C(=O)OC[C@@H]1Cc1cncn1C [Pilocarpine alone, pilocarpine]
1 h Pupil ([1]; OD 1% pilocarpine + 0.025% oxymetazoline, OS 1% pilocarpine alone, single eyes, 1 h): 2.1 and 2.3 and 2.2 and 2.4 and 2.5
4 h Pupil ([1]; OD 1% pilocarpine + 0.025% oxymetazoline, OS 1% pilocarpine alone, single eyes, 4 h): 2.7 and 2.8 and 2.5 and 2.9 and 2.4 and 3 and 2.6 and 3.1
6 h Pupil ([1]; OD 1% pilocarpine + 0.025% oxymetazoline, OS 1% pilocarpine alone, single eyes, 6 h): 4.9 and 4.7 and 4.4 and 4.2 and 4.1
1 h Pupil, AVERAGE ([1]; average per treatment, 1 h): 2.05
4 h Pupil, AVERAGE ([1]; average per treatment, 4 h): 2.52
6 h Pupil, AVERAGE ([1]; average per treatment, 6 h): 4.13
improvement in near vision, compared with pilocarpine + oxymetazoline ([2]; FIG. 3): smaller and tended to wear out earlier
1 h UNVA ([2]; one drop once, OD 1% pilocarpine + 0.025% oxymetazoline, OS 1% pilocarpine alone, single eyes of 10 patients, 1 h): J1 and J1+ and J2 and J3
decrease in distance vision, compared with pilocarpine + oxymetazoline ([3]; FIG. 4, at the 1 and 4 hour time points): more decrease in distance vision
1 h UDVA ([3]; one drop once, OD 1% pilocarpine + 0.025% oxymetazoline, OS 1% pilocarpine alone, single eyes, 1 h): 20/50 and 20/30 and 20/40
4 h UDVA ([3]; one drop once, OD 1% pilocarpine + 0.025% oxymetazoline, OS 1% pilocarpine alone, single eyes, 4 h): 20/40 and 20/20 and 20/30 and 20/25 and 20/50
6 h UDVA ([3]; one drop once, OD 1% pilocarpine + 0.025% oxymetazoline, OS 1% pilocarpine alone, single eyes, 6 h): 20/30 and 20/20 and 20/25
decrease in hyperopia ([4]; one patient, 0.3% topical pilocarpine, U.S. Pat. Nos. 6,291,466 and 6,410,544): less than half
tolerability ([4]; topical concentrations above 0.5%): not tolerated due to side effects such as red eyes, ocular pain, brow ache, and headache
effect in the accommodation of the eye ([4]; topical concentrations below 0.5%): minimal effect
induced astigmatism [5]: seemed to induce more astigmatism
1 h Cyl, AVERAGE ([5]; average per treatment, 1 h): −0.59
1 h Sph Eq, AVERAGE ([5]; average per treatment, 1 h): −0.61
1 h Sph, AVERAGE ([5]; average per treatment, 1 h): −0.32
4 h Cyl, AVERAGE ([5]; average per treatment, 4 h): −0.59
4 h Sph Eq, AVERAGE ([5]; average per treatment, 4 h): −0.43
4 h Sph, AVERAGE ([5]; average per treatment, 4 h): −0.14
6 h Cyl, AVERAGE ([5]; average per treatment, 6 h): −0.43
6 h Sph Eq, AVERAGE ([5]; average per treatment, 6 h): 0.35
6 h Sph, AVERAGE ([5]; average per treatment, 6 h): 0.57

Brc1c(NC2=NCCN2)ccc2nccnc12 [brimonidine]
side effects of topical administration ([4]; known to those in the art): lightheadedness, dizziness, dry mouth, tachycardia, and stomach upset

O=C(O)Cc1ccccc1Nc1c(Cl)cccc1Cl [diclofenac]
serious side effects (Congdon et al.) ([4]; topical ophthalmic use): persistent epithelial defects, corneal melting, and corneal perforation
